We go through 13 compounds from US20080214606A1, “Methods for the Identification and Use of Compounds Suitable for the Treatment of Drug Resistant Cancer Cells” (The Government of the United States of America as …, priority 2004, published 2008).

One data set concerns the target ABCB1 (Homo sapiens, UniProt P08183). The data set can be described thus: Correlation of ABCB1 expression with drug sensitivity across the NCI-60. The essentials: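 SYBR Green real-time RT-PCR on 150 ng total RNA with 250 nM primers: RT 20 min at 50 °C, then 45 cycles; expression taken as crossing-point cycle number. Correlated with drug sensitivity of 1429 compounds across the cell panel; permutation p-values with step-down and step-up (FDR q-value) multiple-testing correction.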

The next data set has as its target T1, ABCG2 (Homo sapiens, UniProt Q9UNQ0).
T1 construct: endogenous in cells; host or cells: NCI-60 human cancer cell lines
Briefly: Correlation of ABCG2 expression with drug sensitivity across the NCI-60. The conditions noted are these: Pearson correlation of ABCG2 expression with sensitivity of the 60 cell lines; 1429 compounds; inverse, p < 0.0001. The class given is cell-based.

In a further data set the target is T2, ABCA1 (Homo sapiens, UniProt O95477).
T2 construct: profiled in 60 diverse cancer cell lines (the NCI-60) using real-time RT-PCR; endogenous in cells; host or cells: NCI-60 human cancer cell lines
The data set can be described thus: Correlation of ABCA1 expression with drug sensitivity across the NCI-60. Format: cell-based. The conditions noted are these: Pearson correlation of ABCA1 expression with sensitivity of the 60 cell lines; 1429 compounds; inverse, p < 0.0001.

For a further data set, the target named is MDR1 (Homo sapiens, UniProt P08183). The conditions noted are these: cited from earlier work; for Interaction with MDR1: tested in various laboratories.
Chain of MDR1 (P08183 whole entry): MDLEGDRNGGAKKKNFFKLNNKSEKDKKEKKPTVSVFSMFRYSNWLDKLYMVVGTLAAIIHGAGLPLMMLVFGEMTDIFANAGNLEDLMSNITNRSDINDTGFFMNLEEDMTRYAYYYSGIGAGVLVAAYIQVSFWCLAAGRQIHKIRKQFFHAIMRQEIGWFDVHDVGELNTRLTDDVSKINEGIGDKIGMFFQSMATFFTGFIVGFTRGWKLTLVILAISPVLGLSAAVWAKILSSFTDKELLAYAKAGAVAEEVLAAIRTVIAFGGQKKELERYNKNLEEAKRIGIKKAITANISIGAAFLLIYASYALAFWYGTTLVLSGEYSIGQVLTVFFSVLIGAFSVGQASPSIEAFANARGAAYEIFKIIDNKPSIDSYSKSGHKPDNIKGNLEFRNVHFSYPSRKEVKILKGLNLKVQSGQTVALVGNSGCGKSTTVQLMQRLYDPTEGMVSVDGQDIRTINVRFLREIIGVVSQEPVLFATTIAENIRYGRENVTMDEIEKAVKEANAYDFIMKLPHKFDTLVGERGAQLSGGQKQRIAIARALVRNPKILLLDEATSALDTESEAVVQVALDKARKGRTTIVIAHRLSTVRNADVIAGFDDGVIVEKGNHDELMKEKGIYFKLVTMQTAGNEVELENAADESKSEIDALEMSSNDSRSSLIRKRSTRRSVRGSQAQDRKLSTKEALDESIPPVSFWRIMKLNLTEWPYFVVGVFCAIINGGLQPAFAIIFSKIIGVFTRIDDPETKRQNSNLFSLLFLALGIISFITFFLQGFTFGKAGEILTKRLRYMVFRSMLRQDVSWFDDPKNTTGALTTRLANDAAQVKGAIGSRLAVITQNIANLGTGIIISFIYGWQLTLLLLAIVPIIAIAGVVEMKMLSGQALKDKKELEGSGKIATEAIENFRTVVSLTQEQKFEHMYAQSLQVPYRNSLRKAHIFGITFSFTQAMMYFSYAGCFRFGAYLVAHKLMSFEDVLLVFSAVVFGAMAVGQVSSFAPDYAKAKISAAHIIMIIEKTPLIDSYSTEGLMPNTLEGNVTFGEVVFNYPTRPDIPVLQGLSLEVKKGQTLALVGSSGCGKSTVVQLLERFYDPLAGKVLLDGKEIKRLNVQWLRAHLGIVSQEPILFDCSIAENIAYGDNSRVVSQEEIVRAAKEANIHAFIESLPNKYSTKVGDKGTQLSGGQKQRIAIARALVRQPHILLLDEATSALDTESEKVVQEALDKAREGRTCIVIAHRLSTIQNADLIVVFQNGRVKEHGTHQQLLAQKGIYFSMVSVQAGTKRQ
Data set [1] has as its system MDR1-overexpressing KB-V1 cells. The data set can be described thus: Efflux assay (accumulation of fluorescent NSC 634791, flow cytometry). The class given is cell-based, human. As to the method: The dashed lines indicate the same experiment performed in the presence of 2 μM of the ABCB1 inhibitor, PSC 833 (for KB-3-1, the solid and dashed lines overlap). Values are means ±SE. for representative experiments performed in triplicate. […] The effect of PSC 833 on IC50 values in KB-V1 cells is expressed as a dose modifying factor, DMF=[IC50/IC50+(IC50)PSC833)], where (IC50)PSC833 is the value obtained in the presence of the inhibitor. […] Cells are incubated with 1.74 μM NSC 634791 for 10 min at 37° C. in the presence (peak on the right) or absence (peak on the left) of 2 μM PSC 833.
Trypsinized cells are washed twice in phosphate-buffered saline (PBS). 5×10^5 cells are pre-incubated for 5 min at 37° C. in Iscove's Modified Dulbecco's Medium (Quality Biologicals, Gaithersburg, Md.) with 0.5% dimethyl sulphoxide (DMSO), with or without 2 μM PSC 833. […] Green fluorescence intensity is measured using a FacsCalibur flow cytometer equipped with a 488-nm argon laser (Becton Dickinson Biosciences, San Jose, Calif., USA). […]
To test whether our approach using the NCI-60 does, in fact, identify new substrates, an MTT assay is used to test all top-scoring compounds that were available from DTP for follow-up experiments. […] The intrinsic fluorescence of one of the compounds, NSC 634791, allows for the measurement of the effect of MDR1 activity on its export from cells.
A general note: In flow cytometry, cells or beads pass a laser one at a time.

Data set [2] relates to ABCC2-transfected MDCKII cells. Briefly: MTT assay, ABCC2-transfected vs sham-transfected MDCKII cells. The class given is cell-based, dog. The method, then:
Panel A is a scatter plot showing the correlation (r) of ABCC2 expression with sensitivity of the 60 cells to NSC 641281 (r=−0.46; 99.99% two-tailed bootstrap confidence interval −0.7987 to −0.0440).
Cell survival is measured by the MTT (3-(4,5-Dimethylthiazol-2-yl)-2,5-diphenyltetrazolium) Assay. Cells are seeded in 100 μl medium at a density of 5000 cells/well in 96 well plates, and serially diluted drug (with or without 2 μM PSC 833) is added the following day in 100 μl medium to give the indicated final concentration. Cells are then incubated for 72 hrs at 37° C. in 5% CO2, and the MTT assay is performed according to the manufacturer's instructions (Molecular Probes, Eugene, Oreg.).
The ABCC (MRP) subfamily is comprised of nine members that transport structurally diverse lipophilic anions and function as drug efflux pumps (Kruh and Belinsky, 2003, Oncogene 22:7537-52). ABCC2-MRP2 is a canalicular efflux pump with a role in the hepatobiliary excretion of bilirubin glucuronide as well as numerous pharmaceuticals. […] One of these compounds, NSC 641281 (shown in FIG. 4, Panel C), was available from DTP for further testing. […]
(In general: Tetrazolium assays rely on reduction of a dye to a coloured formazan, in cell work by metabolically active cells.)

In another data set the target is T3, ABCA9 (Homo sapiens, UniProt Q8IUA7).
T3 construct: profiled in 60 diverse cancer cell lines (the NCI-60) using real-time RT-PCR; endogenous in cells; host or cells: NCI-60 human cancer cell lines
T3 sequence (Q8IUA7 whole entry): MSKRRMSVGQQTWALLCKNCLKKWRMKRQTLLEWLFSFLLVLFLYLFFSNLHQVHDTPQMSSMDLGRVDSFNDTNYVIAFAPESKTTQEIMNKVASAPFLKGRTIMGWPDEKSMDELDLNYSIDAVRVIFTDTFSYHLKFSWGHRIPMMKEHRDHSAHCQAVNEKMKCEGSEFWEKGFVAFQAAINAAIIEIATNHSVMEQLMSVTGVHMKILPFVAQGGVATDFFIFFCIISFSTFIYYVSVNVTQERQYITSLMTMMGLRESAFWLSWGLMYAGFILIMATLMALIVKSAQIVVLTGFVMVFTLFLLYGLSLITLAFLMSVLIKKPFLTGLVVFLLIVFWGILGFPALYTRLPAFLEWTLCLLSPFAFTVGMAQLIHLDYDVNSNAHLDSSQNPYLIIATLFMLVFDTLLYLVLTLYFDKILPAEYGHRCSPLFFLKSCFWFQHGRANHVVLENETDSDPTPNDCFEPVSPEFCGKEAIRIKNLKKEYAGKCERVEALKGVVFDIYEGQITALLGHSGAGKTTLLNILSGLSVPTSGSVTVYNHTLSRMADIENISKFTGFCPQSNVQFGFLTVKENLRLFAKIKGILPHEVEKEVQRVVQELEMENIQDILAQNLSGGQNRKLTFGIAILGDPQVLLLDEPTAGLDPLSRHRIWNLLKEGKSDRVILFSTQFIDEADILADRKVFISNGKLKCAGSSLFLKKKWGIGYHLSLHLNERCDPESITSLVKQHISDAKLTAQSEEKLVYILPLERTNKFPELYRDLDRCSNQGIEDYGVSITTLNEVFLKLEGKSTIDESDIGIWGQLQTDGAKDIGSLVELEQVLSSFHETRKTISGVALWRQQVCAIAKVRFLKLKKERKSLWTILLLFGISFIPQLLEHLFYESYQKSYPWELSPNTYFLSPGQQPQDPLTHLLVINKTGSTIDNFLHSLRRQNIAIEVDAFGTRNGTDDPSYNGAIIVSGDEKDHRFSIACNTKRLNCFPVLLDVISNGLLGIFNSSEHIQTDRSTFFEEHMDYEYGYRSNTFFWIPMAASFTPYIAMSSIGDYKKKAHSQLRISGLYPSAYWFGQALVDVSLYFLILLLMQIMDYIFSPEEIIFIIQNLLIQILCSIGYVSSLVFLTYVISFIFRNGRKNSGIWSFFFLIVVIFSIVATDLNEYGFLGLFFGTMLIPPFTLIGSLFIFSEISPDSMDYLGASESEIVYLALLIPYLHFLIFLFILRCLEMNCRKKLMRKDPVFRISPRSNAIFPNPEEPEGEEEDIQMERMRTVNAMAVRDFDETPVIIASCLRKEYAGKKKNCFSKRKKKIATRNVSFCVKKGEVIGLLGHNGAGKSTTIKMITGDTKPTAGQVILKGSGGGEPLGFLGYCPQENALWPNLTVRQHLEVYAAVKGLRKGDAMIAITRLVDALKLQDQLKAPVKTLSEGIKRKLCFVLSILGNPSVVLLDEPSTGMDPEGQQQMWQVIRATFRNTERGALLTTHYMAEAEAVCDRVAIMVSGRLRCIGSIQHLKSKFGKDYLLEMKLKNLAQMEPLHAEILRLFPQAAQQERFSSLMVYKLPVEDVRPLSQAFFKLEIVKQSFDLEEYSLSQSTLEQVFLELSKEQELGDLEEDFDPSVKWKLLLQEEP
The data set can be described thus: Correlation of ABCA9 expression with drug sensitivity across the NCI-60. The class given is cell-based. The conditions noted are these: Pearson correlation of ABCA9 expression with sensitivity of the 60 cell lines; 1429 compounds; inverse, p < 0.0001.

The target of another data set is T4, ABCC5 (Homo sapiens, UniProt O15440).
T4 construct: profiled in 60 diverse cancer cell lines (the NCI-60) using real-time RT-PCR; endogenous in cells; host or cells: NCI-60 human cancer cell lines
Briefly: Correlation of ABCC5 expression with drug sensitivity across the NCI-60. The class given is cell-based. The conditions noted are these: Pearson correlation of ABCC5 expression with sensitivity of the 60 cell lines; 1429 compounds; inverse, p < 0.0001.

The target of a further data set is T5, ABCB6 (Homo sapiens, UniProt Q9NP58).
T5 construct: profiled in 60 diverse cancer cell lines (the NCI-60) using real-time RT-PCR; endogenous in cells; host or cells: NCI-60 human cancer cell lines
T5 sequence (Q9NP58 whole entry): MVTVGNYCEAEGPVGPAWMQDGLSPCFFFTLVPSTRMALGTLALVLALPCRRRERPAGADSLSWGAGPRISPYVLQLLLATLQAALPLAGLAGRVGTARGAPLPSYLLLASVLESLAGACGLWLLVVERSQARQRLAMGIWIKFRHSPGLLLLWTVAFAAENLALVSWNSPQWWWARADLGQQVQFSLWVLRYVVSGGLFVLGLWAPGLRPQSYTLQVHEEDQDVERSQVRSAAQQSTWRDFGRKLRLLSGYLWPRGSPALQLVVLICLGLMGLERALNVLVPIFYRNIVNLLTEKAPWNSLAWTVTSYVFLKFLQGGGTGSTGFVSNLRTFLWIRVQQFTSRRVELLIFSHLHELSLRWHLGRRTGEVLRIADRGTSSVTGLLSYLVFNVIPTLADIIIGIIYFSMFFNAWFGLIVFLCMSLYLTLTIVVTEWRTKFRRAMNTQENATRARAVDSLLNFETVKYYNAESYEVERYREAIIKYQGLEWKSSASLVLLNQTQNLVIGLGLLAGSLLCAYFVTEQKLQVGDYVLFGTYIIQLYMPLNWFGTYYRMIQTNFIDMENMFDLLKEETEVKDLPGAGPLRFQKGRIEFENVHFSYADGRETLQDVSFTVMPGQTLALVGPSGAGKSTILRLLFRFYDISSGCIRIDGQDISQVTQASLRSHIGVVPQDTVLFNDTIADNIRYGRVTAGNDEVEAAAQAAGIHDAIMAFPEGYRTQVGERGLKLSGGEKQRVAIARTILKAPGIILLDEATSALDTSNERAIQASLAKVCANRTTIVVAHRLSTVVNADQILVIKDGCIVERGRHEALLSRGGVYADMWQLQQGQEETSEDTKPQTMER
The data set can be described thus: Correlation of ABCB6 expression with drug sensitivity across the NCI-60. The class given is cell-based. The conditions noted are these: Pearson correlation of ABCB6 expression with sensitivity of the 60 cell lines; 1429 compounds; inverse, p < 0.0001.

Entries after “also recorded” stand apart in the source; their conditions may differ. Where two headings read alike, the source gives them in different places.

Chain of ABCB1 (P08183 whole entry): as the sequence (P08183 whole entry) above
Experimental for ABCA1: (§1) Expression levels are measured by real-time quantitative RT-PCR using the LightCycler RNA Amplification SYBR Green kit and a LightCycler machine (Roche Biochemicals, Indianapolis, Ind.). […] When possible, the amplicons are designed to encompass exon-intron boundaries to avoid amplification of genomic DNA. Since the Syber Green assay detects accumulation of double stranded DNA, primers are selected (from a battery consisting of about 200 primers) that amplified a single product of the correct size.
(§2) RT-PCR is carried out on 150 ng total RNA, in the presence of 250 nM specific primers. Following reverse transcription (20 min at 50° C.), the PCR reaction consists of 45 cycles of denaturation (15 sec at 95° C.), annealing (30 sec at 58° C.), and elongation (30 sec at 72° C.). No-template (water) reaction mixtures are prepared as negative controls.
(§3) During PCR amplification, fluorescence emission is measured and recorded in real time by the LightCycler. Crossing point values are calculated, using the LightCycler software package, by the Fit Points analysis method, with baseline fluorescence set at 1. The SyberGreen assay measures accumulation of double-stranded products, and the appearance of primer dimers limits quantitation at high cycle numbers. The specificity of amplified products is verified by melting-curve analysis and agarose gel electrophoresis (not shown). The raw results are expressed as number of cycles to reach the crossing point. If the desired product is not detected, the corresponding value is adjusted to crossing points indicating no expression. To assess the contribution of experimental artifacts, selected cell lines are assessed in replicate.
(§4) The two are combined to form a joint dataset that includes 1429 compounds.
(§5) In the Benjamini-Hochberg procedure the p-values are computed in the standard way by permutation, assuming that all distributions are exchangeable: the number of values in the permuted data with correlations over a threshold, divided by the number of compounds and by the number of permutations. In this analysis, the False Discovery Rate (q-value) at which each compound would be declared was calculated using the step-up procedure for positively correlated test statistics (again true because all correlations being compared are computed against the same ABC gene): in this procedure the first q-value for the largest correlation is the Bonferroni-corrected p-value for that gene; then further q-values are calculated as qj=max(pj*1429/j, qj-1). This procedure limits the expected proportion of false positives in the list 1, . . . , j to at most qj.
Experimental for ABCA9: (§6) Expression levels are measured by real-time quantitative RT-PCR using the LightCycler RNA Amplification SYBR Green kit and a LightCycler machine (Roche Biochemicals, Indianapolis, Ind.). Specific oligonucleotide probes are designed for each of the ABC transporters using DNAStar Primer Select (DNASTAR Inc.), and they may be synthesized at Lofstrand Laboratories (Gaithersburg, Md.). When possible, the amplicons are designed to encompass exon-intron boundaries to avoid amplification of genomic DNA. Since the Syber Green assay detects accumulation of double stranded DNA, primers are selected (from a battery consisting of about 200 primers) that amplified a single product of the correct size. […]
(§7) During PCR amplification, fluorescence emission is measured and recorded in real time by the LightCycler. Crossing point values are calculated, using the LightCycler software package, by the Fit Points analysis method, with baseline fluorescence set at 1. The SyberGreen assay measures accumulation of double-stranded products, and the appearance of primer dimers limits quantitation at high cycle numbers. […] The raw results are expressed as number of cycles to reach the crossing point. If the desired product is not detected, the corresponding value is adjusted to crossing points indicating no expression. To assess the contribution of experimental artifacts, selected cell lines are assessed in replicate. […]
Experimental for ABCB6: as §6, §7
Experimental for ABCC5: as §1, §2, §3, §4, §5
Experimental for ABCG2: as §6, §7

Regarding `CCOC(=O)/C=C(\C(=O)OCC)n1cc(C)c(=O)n(Cc2cnnn2CCCCOC(C)=O)c1=O` [NSC 694002], the “Pearson's Correlation Coeff” value at ABCB1 is on record as 0.2442. In addition, the Correlation at ABCG2 is reported as −0.3627.

For `CC(=O)O[C@@H]1[C@@H](O)[C@H](O[C@H]2[C@H](OC(=O)[C@H]3CC[C@@H]4[C@H](C3)O[C@@]3(C[C@H](OC(=O)/C=C/c5ccccc5)[C@H](C)CO3)[C@]43CO3)O[C@H](C)[C@@H](O)[C@@H]2OC(C)=O)O[C@H](C)[C@H]1O` [NSC 328426, phyllanthoside], the Correlation is reported as −0.2806 on ABCA1 and −0.7784 at ABCB1 (Pearson correlation of ABCB1 expression with sensitivity of the 60 cell lines, 1429 compounds, inverse, p < 0.0001). The “Interaction with MDR1” value at MDR1 was “interact with MDR1”.

Turning to `CCN(CC)c1ccc(/C=C2/C[N+](C)(C)C/C(=C/c3ccc(N(CC)CC)cc3)C2=O)cc1.[I-]` [NSC 634791], in data set [1] (1.74 μM, 10 min at 37° C.), the “Accumulation of the fluorescent compound in MDR1-positive cells vs parental KB-3-1” value is reported as “contain less of the fluorescent compound than the parental KB-3-1 cell line”. In data set [1] (2 μM PSC 833), the “Effect of PSC 833 on the decreased accumulation” value was “completely reversible”. On ABCB1, this compound yielded a Correlation of −0.7900. For `CCS(=O)(=O)O.CN(C)C(=O)c1cccc(COc2ccc(N3C(N)=NC(N)=NC3(C)C)cc2Cl)c1` [NSC 139105, Baker's soluble antifol, reference compound], the “Reversal of resistance by verapamil” value at MDR1 (verapamil, inhibitor of MDR1 transport (Gupta et al., 1988)) is “reversed by verapamil”. Moreover, the “Relationship between drug sensitivity and ABCB1 expression (in words)” value at ABCB1 was “inversely correlated”. On to `Cn1c2ccc(F)cc2c2ccc3c(c21)C(=O)C=CC3=O` [NSC 668844], for which the Correlation on ABCG2 is on record as −0.4615.

As for `O=C(O)COc1ccc(C(=O)/C(SS/C(C(=O)c2ccc(OCC(=O)O)c(Cl)c2Cl)=C2\C=C(c3ccc(Br)cc3)SS2)=C2/C=C(c3ccc(Br)cc3)SS2)c(Cl)c1Cl` [NSC 641281], the “Response of ABCC2-overexpressing MDCKII cells vs sham-transfected control” value in data set [2] was “extremely resistant; also recorded: no signs of toxicity even at maximal concentrations”. `C[C@]12CC[C@H]3[C@@H](CCC4=CC(=O)NCC[C@@]43C)[C@@H]1CC[C@@H]2OC(=O)COc1ccc(N(CCCl)CCCl)cc1` [NSC 620480] showed a Correlation at ABCA9 of −0.4846. Take `CS(=O)(=O)[O-].Cc1c2cc[n+](C)cc2c(C)c2c1[nH]c1ccccc12` [NSC 352299]: at ABCC5, the Correlation is −0.4318. `COc1cc2cc3c4cc(OC)c(OC)cc4cc[n+]3c(C)c2cc1OC` [NSC 156625, Coralyne]: the “Interaction with MDR1” value at MDR1 is “interact with MDR1”. Moreover, on ABCB1, the Correlation is recorded as −0.4657. On ABCA9, `CCCCCCCCCCCCCCCC(=O)OCC1OC(OC)C2NP(=O)(N(CCCl)CCCl)OC1C2O` (centres unmarked) [NSC 642915] showed a Correlation of −0.4289. In the case of `Cn1c2ccccc2c2ccc3c(c21)C(=O)C=CC3=O` [NSC 92937], the Correlation on ABCB6 is −0.4335. Turning to `Cc1c2cc[n+](Cc3ccc(I)cc3)cc2c(C)c2c1[nH]c1ccccc12` [NSC 604574], the Correlation on ABCC5 is −0.4123. In turn, `CC(=O)O[C@@H]1C=C(C=O)[C@](O)(C=O)[C@@]2(C)CCCC(C)(C)[C@H]12` [NSC 277293] registered a Correlation at ABCB6 of −0.5055.
